Experimental data taken from patent US20260285850A1, “SUBSTITUTED OXAZOLIDINONES AND IMIDAZOLINONES AS HERBICIDES” (FMC CORPORATION, priority 2023, published 2026).

What was measured:
Format in all cases: in vivo
[1] = test system: barnyardgrass (Echinochloa crus-galli); assay: Test A preemergence soil spray, visual injury rating 0-100; conditions: 10 days
Procedure, shortened: (§1)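 Visual injury ratings (0, no effect; 100, complete control) were assigned relative to untreated plants 10 days after treatment. Test chemicals, formulated with a surfactant-containing non-phytotoxic solvent, were applied in loam-sand soil either as a directed soil spray before emergence or to emerged plants, and plants were kept in a greenhouse.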

[2] = test system: blackgrass (Alopecurus myosuroides); assay: as above; conditions: 10 days
Procedure, shortened: as §1

corn (Zea mays) [3] = assay: as above; conditions: 10 days
Procedure, shortened: as §1

[4] = test system: green foxtail (Setaria viridis); assay: as above; conditions: 10 days
Procedure, shortened: as §1

kochia (Bassia scoparia) [5] = assay: as above; conditions: 10 days
Procedure, shortened: as §1

[6] = test system: oat, wild (wild oat, Avena fatua); assay: as above; conditions: 10 days
Procedure, shortened: as §1

[7] = test system: palmer (palmer amaranth, palmer pigweed, Amaranthus palmeri); assay: as above; conditions: 10 days
Procedure, shortened: as §1

[8] = test system: ragweed (common ragweed, Ambrosia artemisiifolia); assay: as above; conditions: 10 days
Procedure, shortened: as §1

[9] = test system: ryegrass, Italian (italian ryegrass, Lolium multiflorum); assay: as above; conditions: 10 days
Procedure, shortened: as §1

soybean (Glycine max) [10] = assay: as above; conditions: 10 days
Procedure, shortened: as §1

[11] = test system: wheat (Triticum aestivum); assay: as above; conditions: 10 days
Procedure, shortened: as §1

[12] = test system: barnyardgrass (Echinochloa crus-galli); assay: Test A postemergence application, visual injury rating 0-100
Procedure, shortened: as §1

[13] = test system: blackgrass (Alopecurus myosuroides); assay: as above
Procedure, shortened: as §1

corn (Zea mays) [14] = assay: as above
Procedure, shortened: as §1

[15] = test system: galium (catchweed bedstraw, Galium aparine); assay: as above
Procedure, shortened: as §1

[16] = test system: green foxtail (Setaria viridis); assay: as above
Procedure, shortened: as §1

[17] = test system: horseweed (Erigeron canadensis); assay: as above
Procedure, shortened: as §1

kochia (Bassia scoparia) [18] = assay: as above
Procedure, shortened: as §1

[19] = test system: oat, wild (wild oat, Avena fatua); assay: as above
Procedure, shortened: as §1

[20] = test system: palmer (palmer amaranth, palmer pigweed, Amaranthus palmeri); assay: as above
Procedure, shortened: as §1

[21] = test system: ragweed (common ragweed, Ambrosia artemisiifolia); assay: as above
Procedure, shortened: as §1

[22] = test system: ryegrass, Italian (italian ryegrass, Lolium multiflorum); assay: as above
Procedure, shortened: as §1

soybean (Glycine max) [23] = assay: as above
Procedure, shortened: as §1

[24] = test system: wheat (Triticum aestivum); assay: as above
Procedure, shortened: as §1

[25] = test system: barnyardgrass (Echinochloa crusgalli); assay: Test B flooded paddy test, visual plant response rating 0-100; conditions: 250 g ai/ha, Flood, applied to paddy water, evaluated after 13 days
Procedure, shortened: (§2)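 Compounds applied to standing paddy water (3 cm above soil, maintained for the test duration) on 2-leaf-stage plants; visual rating vs controls at 13 days, greenhouse.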

[26] = test system: ducksalad (Heteranthera limosa); assay: as above; conditions: 250 g ai/ha, Flood, applied to paddy water, evaluated after 13 days
Procedure, shortened: as §2

rice (Oryza sativa) = assay: as above; conditions: 250 g ai/ha, Flood, applied to paddy water, evaluated after 13 days
Procedure, shortened: as §2

[27] = test system: sedge, umbrella (small-flower umbrella sedge, Cyperus difformis); assay: as above; conditions: 250 g ai/ha, Flood, applied to paddy water, evaluated after 13 days
Procedure, shortened: as §2

[28] = 62 g ai/ha, 0 = no effect, 100 = complete control
[29] = 62 g ai/ha, postemergence, 10 days, 0 = no effect, 100 = complete control
[30] = Postemergence, 16 g ai/ha, greenhouse 10 days, 0 no effect, 100 complete control

Structure (SMILES): C=CC1(C(=O)NC2C=CC(C(=O)OC)C2)CN(c2cc(F)cc(F)c2)C(=O)O1 (single isomer, unassigned) [Compound 167]
- Barnyardgrass plant response rating ([1]; 16 g ai/ha, 0 to 100 scale): 60
- Barnyardgrass plant response rating (0-100) [1, 28]: 100
- Blackgrass plant response rating ([2]; 16 g ai/ha, 0 to 100 scale): 30
- Blackgrass plant response rating (0-100) [2, 28]: 70
- Corn plant response rating (corn (Zea mays) [3]; 16 g ai/ha, 0 to 100 scale): 40
- Corn plant response rating (0-100) (corn (Zea mays) [3]; [28]): 90
- Foxtail, Green plant response rating ([4]; 16 g ai/ha, 0 to 100 scale): 90
- Foxtail, Green plant response rating (0-100) [4, 28]: 100
- Kochia plant response rating (kochia (Bassia scoparia) [5]; 16 g ai/ha, 0 to 100 scale): 70
- Kochia plant response rating (0-100) (kochia (Bassia scoparia) [5]; [28]): 100
- Oat, Wild plant response rating ([6]; 16 g ai/ha, 0 to 100 scale): 50
- Oat, Wild plant response rating (0-100) [6, 28]: 90
- Pigweed, Palmer plant response rating ([7]; 16 g ai/ha, 0 to 100 scale): 100
- Pigweed, Palmer plant response rating (0-100) [7, 28]: 100
- Ragweed plant response rating ([8]; 16 g ai/ha, 0 to 100 scale): 60
- Ragweed plant response rating (0-100) [8, 28]: 90
- Ryegrass, Italian plant response rating ([9]; 16 g ai/ha, 0 to 100 scale): 80
- Ryegrass, Italian plant response rating (0-100) [9, 28]: 90
- Soybean plant response rating (soybean (Glycine max) [10]; 16 g ai/ha, 0 to 100 scale): 70
- Soybean plant response rating (0-100) (soybean (Glycine max) [10]; [28]): 80
- Wheat plant response rating ([11]; 16 g ai/ha, 0 to 100 scale): 70
- Wheat plant response rating (0-100) [11, 28]: 90
- Barnyardgrass plant response rating (0-100) [12, 29]: 90
- Barnyardgrass plant response rating (0 to 100 scale) [12, 30]: 90
- Blackgrass plant response rating (0-100) [13, 29]: 90
- Blackgrass plant response rating (0 to 100 scale) [13, 30]: 80
- Corn plant response rating (0-100) (corn (Zea mays) [14]; [29]): 100
- Corn plant response rating (0 to 100 scale) (corn (Zea mays) [14]; [30]): 100
- Galium plant response rating (0-100) [15, 29]: 80
- Galium plant response rating (0 to 100 scale) [15, 30]: 80
- Foxtail, Green plant response rating (0-100) [16, 29]: 90
- Foxtail, Green plant response rating (0 to 100 scale) [16, 30]: 90
- Horseweed plant response rating (0-100) [17, 29]: 80
- Horseweed plant response rating (0 to 100 scale) [17, 30]: 80
- Kochia plant response rating (0-100) (kochia (Bassia scoparia) [18]; [29]): 80
- Kochia plant response rating (0 to 100 scale) (kochia (Bassia scoparia) [18]; [30]): 80
- Oat, Wild plant response rating (0-100) [19, 29]: 90
- Oat, Wild plant response rating (0 to 100 scale) [19, 30]: 90
- Pigweed, Palmer plant response rating (0-100) [20, 29]: 90
- Pigweed, Palmer plant response rating (0 to 100 scale) [20, 30]: 90
- Ragweed plant response rating (0-100) [21, 29]: 80
- Ragweed plant response rating (0 to 100 scale) [21, 30]: 70
- Ryegrass, Italian plant response rating (0-100) [22, 29]: 90
- Ryegrass, Italian plant response rating (0 to 100 scale) [22, 30]: 80
- Soybean plant response rating (0-100) (soybean (Glycine max) [23]; [29]): 80
- Soybean plant response rating (0 to 100 scale) (soybean (Glycine max) [23]; [30]): 80
- Wheat plant response rating (0-100) [24, 29]: 90
- Wheat plant response rating (0 to 100 scale) [24, 30]: 90
- Plant response rating, Barnyardgrass (0 to 100 scale, 0 is no effect and 100 is complete control) [25]: 90
- Plant response rating, Ducksalad (0 to 100 scale, 0 is no effect and 100 is complete control) [26]: 98
- Plant response rating, Rice (0 to 100 scale, 0 is no effect and 100 is complete control) (rice (Oryza sativa)): 98
- Plant response rating, Sedge, Umbrella (0 to 100 scale, 0 is no effect and 100 is complete control) [27]: 98
